Data: ChEMBL document CHEMBL5120961, “N-Arylimidazoliums as Highly Selective Biomimetic Antimicrobial Agents” (J Med Chem, 2022)
≈ marks a conversion by molar mass, not a printed value. Calls of active or inactive are those of the source. No cut-off for these calls is given here. Bridge positions count the residues as written; N and C are the ends. Square brackets hold non-standard residues; d marks the D form. Peptide text beside a SMILES is read from it. * marks the point of attachment. X1 = CC[C@H](C)CCCCC(=O)*; Dab = NCC[C@H](N)C(=O)O

Tests used:
Staphylococcus aureus [1] = assay: Antibacterial activity against Staphylococcus aureus ATCC 25923 assessed as inhibition of bacterial growth incubated for 16 to 18 hrs by broth microdilution method; format: functional; conditions: time 16-18 hrs
Escherichia coli [2] = assay: Antibacterial activity against Escherichia coli ATCC 25922 assessed as inhibition of bacterial growth incubated for 16 to 18 hrs by broth microdilution method; format: functional; conditions: time 16-18 hrs
Staphylococcus aureus [3] = assay: Antibacterial activity against methicillin-resistant Staphylococcus aureus ATCC 43300 assessed as inhibition of bacterial growth incubated for 16 to 18 hrs by broth microdilution method; format: functional; conditions: time 16-18 hrs
[4] = Selectivity ratio of HC5 for hemolytic activity in rabbit erythrocytes to MIC for antibacterial activity against methicillin-resistant Staphylococcus aureus ATCC 43300; format: toxicity, cell-based
Erythrocyte = assay: Hemolytic activity in rabbit erythrocytes incubated for 1 hr; format: toxicity, cell-based, Oryctolagus cuniculus
Klebsiella pneumoniae = assay: Antibacterial activity against Klebsiella pneumoniae CMCC(B) 46117 assessed as inhibition of bacterial growth incubated for 16 to 18 hrs by broth microdilution method; format: functional; conditions: time 16-18 hrs
Pseudomonas aeruginosa = assay: Antibacterial activity against Pseudomonas aeruginosa ATCC 27853 assessed as inhibition of bacterial growth incubated for 16 to 18 hrs by broth microdilution method; format: functional; conditions: time 16-18 hrs
Acinetobacter baumannii = assay: Antibacterial activity against Acinetobacter baumannii ATCC 19606 assessed as inhibition of bacterial growth incubated for 16 to 18 hrs by broth microdilution method; format: functional; conditions: time 16-18 hrs
Staphylococcus aureus [5] = assay: Disruption of established biofilm in methicillin-resistant Staphylococcus aureus ATCC 43300 assessed as reduction of relative biofilm mass at 64XMIC incubated for 24 hrs by crystal violet staining based analysis; format: functional
[6] = MRT (0 to infinity) in Sprague-Dawley rat at 8 mg/kg, iv by LC-MS analysis; format: ADME, organism-based; conditions: in vivo
Staphylococcus aureus [7] = assay: Antibacterial activity against methicillin-resistant Staphylococcus aureus ATCC 43300 infected in BALB/c mouse assessed as reduction in TNF-alpha content in lungs at 4 mg/kg, iv administered at 1, 6, 25 and 30 hrs post-infection and measured on day 7 post-infection by ELISA; format: functional, organism-based; conditions: time 7.0 day
Enterococcus faecalis = assay: Antibacterial activity against Enterococcus faecalis ATCC 29212 assessed as inhibition of bacterial growth incubated for 16 to 18 hrs by broth microdilution method; format: functional; conditions: time 16-18 hrs
Escherichia coli [8] = assay: Bactericidal activity against Escherichia coli ATCC 25922 assessed as eradication of bacterial colonies at 16XMIC measured after 30 mins time-kill kinetics analysis; format: functional, organism-based
[9] = Acute toxicity in BALB/c mouse assessed as anorexia at >12 mg/kg, iv; format: organism-based; conditions: in vivo
[10] = Subacute toxicity in BALB/c mouse assessed as histopathological changes of heart at 4 to 8 mg/kg, iv administered for 7 days and measured on day 14 by hematoxyin-eosin staining based analysis; format: organism-based; conditions: in vivo, 336 h, dose 4-8 mg/kg, time 14 day
[11] = Subacute toxicity in BALB/c mouse assessed as animals abnormal behaviour at 4 to 8 mg/kg, iv administered everyday for 7 days; format: organism-based; conditions: in vivo, 168 h, dose 4-8 mg/kg, time 7 day
[12] = Mean clearance rate, Clz in Sprague-Dawley rat at 8 mg/kg, iv by LC-MS analysis; format: ADME, organism-based; conditions: in vivo
[13] = Acute toxicity in BALB/c mouse assessed as clonic convulsion at >12 mg/kg, iv; format: organism-based; conditions: in vivo
[14] = Cmax in Sprague-Dawley rat at 8 mg/kg, iv by LC-MS analysis; format: ADME, organism-based; set-up: dose 8 mg/kg, route iv; conditions: in vivo
[15] = Subacute toxicity in BALB/c mouse assessed as histopathological changes of lungs at 4 to 8 mg/kg, iv administered for 7 days and measured on day 14 by hematoxyin-eosin staining based analysis; format: organism-based; conditions: in vivo, 336 h, dose 4-8 mg/kg, time 14 day
[16] = Subacute toxicity in BALB/c mouse assessed as animal's death at 4 to 8 mg/kg, iv administered everyday for 7 days; format: organism-based; conditions: in vivo, 168 h, dose 4-8 mg/kg, time 7 day
Staphylococcus aureus [17] = assay: Antibacterial activity against methicillin-resistant Staphylococcus aureus ATCC 43300 infected in BALB/c mouse assessed as reduction in bacterial burden in lungs at 4 mg/kg, iv administered at 1, 6, 25 and 30 hrs post-infection and measured on day 7 post-infection by colony forming unit assay; format: functional, organism-based; conditions: time 7.0 day
[18] = AUC (0 to infinity) in Sprague-Dawley rat at 8 mg/kg, iv by LC-MS analysis; format: ADME, organism-based; set-up: time infinity, dose 8 mg/kg, route iv; conditions: in vivo
[19] = Tmax in Sprague-Dawley rat at 8 mg/kg, iv by LC-MS analysis; format: ADME, organism-based; conditions: in vivo
Staphylococcus aureus [20] = assay: Bactericidal activity against Staphylococcus aureus ATCC 25923 assessed as eradication of bacterial colonies at 4XMIC measured after 15 mins by time-kill kinetics analysis; format: functional, organism-based
[21] = Acute toxicity in BALB/c mouse assessed as ruffled fur at >12 mg/kg, iv; format: organism-based; conditions: in vivo
[22] = Subacute toxicity in BALB/c mouse assessed as histopathological changes of liver at 4 to 8 mg/kg, iv administered for 7 days and measured on day 14 by hematoxyin-eosin staining based analysis; format: organism-based; conditions: in vivo, 336 h, dose 4-8 mg/kg, time 14 day
Staphylococcus aureus [23] = assay: Inhibition of biofilm formation in methicillin-resistant Staphylococcus aureus ATCC 43300 at MIC incubated for 24 hrs under stationary conditions by crystal violet staining based analysis; format: functional
[24] = Increase in intracellular ROS level in Staphylococcus aureus ATCC 25923 at 4XMIC measured after 10 mins by DCFH-DA staining based fluorescence analysis relative to control; format: functional
[25] = Increase in intracellular ROS level in Escherichia coli ATCC 25922 at 4XMIC measured after 10 mins by DCFH-DA staining based fluorescence analysis relative to control; format: functional
Escherichia coli [26] = assay: Antibacterial activity against Escherichia coli ATCC 25922 assessed as inhibition of bacterial growth incubated for 16 to 18 hrs in presence of ROS scavenger, NAC by broth microdilution method; format: functional; conditions: time 16-18 hrs
[27] = Half-life in Sprague-Dawley rat at 8 mg/kg, iv by LC-MS analysis; format: ADME, organism-based; conditions: in vivo
Staphylococcus aureus [28] = assay: (§1) Antibacterial activity against methicillin-resistant Staphylococcus aureus ATCC 43300 infected in BALB/c mouse assessed as reduction of NF-kappaB p65 expression in lungs at 4 mg/kg, iv administered at 1, 6, 25 and 30 hrs post-infection and measured on day 7 post-infection by western blot analysis; format: functional, organism-based; conditions: time 7.0 day
Staphylococcus aureus [29] = assay: Antibacterial activity against Staphylococcus aureus ATCC 25923 assessed as inhibition of bacterial growth incubated for 16 to 18 hrs in presence of ROS scavenger, NAC by broth microdilution method; format: functional; conditions: time 16-18 hrs
[30] = Cytotoxicity against human HEK293 cells assessed as reduction of cell viability incubated for 48 hrs by MTT assay; format: toxicity, cell-based
Staphylococcus aureus [31] = assay: Antibacterial activity against methicillin-resistant Staphylococcus aureus ATCC 43300 infected in BALB/c mouse assessed as increase in IL-10 content in lungs at 4 mg/kg, iv administered at 1, 6, 25 and 30 hrs post-infection and measured on day 7 post-infection by ELISA; format: functional, organism-based; conditions: time 7.0 day
[32] = Subacute toxicity in BALB/c mouse assessed as histopathological changes of kidney at 4 to 8 mg/kg, iv administered for 7 days and measured on day 14 by hematoxyin-eosin staining based analysis; format: organism-based; conditions: in vivo, 336 h, dose 4-8 mg/kg, time 14 day
Staphylococcus aureus [33] = assay: Antibacterial activity against methicillin-resistant Staphylococcus aureus ATCC 43300 infected in BALB/c mouse assessed as increase in animal's survival rate at 4 mg/kg, iv administered at 1, 6, 25 and 30 hrs post-infection and measured for 7 day post-infection; format: functional, organism-based
Staphylococcus aureus [34] = assay: as §1, with “histopathological changes of pulmonary tissue” for “NF-kappaB p65 expression in lungs”, “hematoxylin-eosin staining based” for “western blot”; format: functional, organism-based; conditions: time 7.0 day
Staphylococcus aureus [35] = assay: Antibacterial activity against methicillin-resistant Staphylococcus aureus ATCC 43300 infected in BALB/c mouse assessed as reduction in MPO content in lungs at 4 mg/kg, iv administered at 1, 6, 25 and 30 hrs post-infection and measured on day 7 post-infection by ELISA; format: functional, organism-based; conditions: time 7.0 day
[36] = Subacute toxicity in BALB/c mouse assessed as histopathological changes of spleen at 4 to 8 mg/kg, iv administered for 7 days and measured on day 14 by hematoxyin-eosin staining based analysis; format: organism-based; conditions: in vivo, 336 h, dose 4-8 mg/kg, time 14 day
Staphylococcus aureus [37] = assay: Disruption of established biofilm in methicillin-resistant Staphylococcus aureus ATCC 43300 assessed as reduction of relative biofilm mass incubated for 24 hrs by crystal violet staining based analysis; format: functional, organism-based; conditions: DDE = dose-dependent effect
[38] = Acute toxicity in BALB/c mouse assessed as animal's death at >12 mg/kg, iv; format: organism-based; conditions: in vivo
[39] = Acute toxicity in BALB/c mouse assessed as lethargy at >12 mg/kg, iv; format: organism-based; conditions: in vivo
Staphylococcus aureus [40] = assay: Inhibition of biofilm formation in methicillin-resistant Staphylococcus aureus ATCC 43300 incubated for 24 hrs under stationary conditions by crystal violet staining based analysis; format: functional, organism-based
Staphylococcus aureus [41] = assay: Antibacterial activity against methicillin-resistant Staphylococcus aureus ATCC 43300 assessed as inhibition of bacterial growth measured after 10 passages by broth microdilution method; format: functional, organism-based

## C(#Cc1ccc(-n2cc[n+](Cc3ccccc3)c2)cc1)c1ccc(-n2cc[n+](Cc3ccccc3)c2)cc1.[Br-].[Br-]
Staphylococcus aureus [1]
  MIC: 0.5 µg/mL
Escherichia coli [2]
  MIC: 2 µg/mL
Staphylococcus aureus [3]
  MIC: 1 µg/mL
[4]
  selectivity ratio: 200
Erythrocyte
  HC5: 200 µg/mL

## CCCCCCCC[n+]1ccn(-c2ccc(C#Cc3ccc(-n4cc[n+](CCCCCCCC)c4)cc3)cc2)c1.[Br-].[Br-]
Staphylococcus aureus [1]
  MIC: 1 µg/mL
Escherichia coli [2]
  MIC: 1 µg/mL
Staphylococcus aureus [3]
  MIC: 1 µg/mL
[4]
  selectivity ratio: 200
Erythrocyte
  HC5: 200 µg/mL

## CCCCCC[n+]1ccn(-c2ccc(/C=C/c3ccc(-n4cc[n+](CCCCCC)c4)cc3)cc2)c1.[Br-].[Br-]
Staphylococcus aureus [1]
  MIC: 1 µg/mL
Escherichia coli [2]
  MIC: 2 µg/mL
Staphylococcus aureus [3]
  MIC: 1 µg/mL
[4]
  selectivity ratio: 600
Erythrocyte
  HC5: 600 µg/mL

## CC[C@H](C)CCCCC(=O)N[C@@H](CCN)C(=O)N[C@H](C(=O)N[C@@H](CCN)C(=O)N[C@H]1CCNC(=O)[C@H]([C@@H](C)O)NC(=O)[C@H](CCN)NC(=O)[C@H](CCN)NC(=O)[C@H](CC(C)C)NC(=O)[C@@H](Cc2ccccc2)NC(=O)[C@H](CCN)NC1=O)[C@@H](C)O (X1-[Dab]T[Dab][Dab][Dab][dF]L[Dab][Dab]T; lactam 4-C)
Escherichia coli [2]
  MIC: 1 µg/mL (≈ 0.831 µM)
Klebsiella pneumoniae
  MIC: 1 µg/mL (≈ 0.831 µM)
Pseudomonas aeruginosa
  MIC: 1 µg/mL (≈ 0.831 µM)
Acinetobacter baumannii
  MIC: 1 µg/mL (≈ 0.831 µM)

## CCCCCC[n+]1ccn(-c2ccc(C#Cc3ccc(-n4cc[n+](CCCCCC)c4)cc3)cc2)c1.[Br-].[Br-]
Staphylococcus aureus [5]
  inhibition (INH): 69%
[6]
  MRT inf: 32.5 min
Staphylococcus aureus [7]
  Activity: Active
Enterococcus faecalis
  MIC: 8 µg/mL
Escherichia coli [8]
  Activity: Active
[9]
  Activity: Non-Toxic
[10]
  Activity: Non-Toxic
[11]
  Activity: Non-Toxic
[12]
  clearance: 27.2 mL/min/kg
[13]
  Activity: Non-Toxic
[14]
  Cmax: 12000 ng/mL
[15]
  Activity: Non-Toxic
[16]
  Activity: Non-Toxic
Staphylococcus aureus [1]
  MIC: 0.25 µg/mL
Escherichia coli [2]
  MIC: 1 µg/mL
Staphylococcus aureus [17]
  Activity: Active
Klebsiella pneumoniae
  MIC: 32 µg/mL
Staphylococcus aureus [3]
  MIC: 0.5 µg/mL
[18]
  AUC(0-inf): 5120 ng·h/mL
[19]
  Tmax: 4.98 min
Staphylococcus aureus [20]
  Activity: Active
[21]
  Activity: Non-Toxic
[4]
  selectivity ratio: 1600
[22]
  Activity: Non-Toxic
Staphylococcus aureus [23]
  inhibition (INH): 100%
[24]
  fold change (FC): 2
[25]
  fold change (FC): 20
Pseudomonas aeruginosa
  MIC: 32 µg/mL
Erythrocyte
  HC5: 800 µg/mL
Escherichia coli [26]
  MIC: 32 µg/mL
[27]
  half-life: 51.4 min
Staphylococcus aureus [28]
  Activity: Active
Staphylococcus aureus [29]
  MIC: 64 µg/mL
[30]
  CC50 at 48 h: 224 µg/mL
Acinetobacter baumannii
  MIC: 32 µg/mL
Staphylococcus aureus [31]
  Activity: Active
[32]
  Activity: Non-Toxic
Staphylococcus aureus [33]
  Activity: Active
Staphylococcus aureus [34]
  Activity: Active
Staphylococcus aureus [35]
  Activity: Active
[36]
  Activity: Non-Toxic
Staphylococcus aureus [37]
  Activity: Dde
[38]
  Activity: Non-Toxic
[39]
  Activity: Non-Toxic
Staphylococcus aureus [40]
  inhibition: Active
Staphylococcus aureus [41]
  Activity: Active

## C(#Cc1ccc(-n2ccnc2)cc1)c1ccc(-n2ccnc2)cc1
Staphylococcus aureus [1]
  MIC: > 500 µg/mL
Escherichia coli [2]
  MIC: > 500 µg/mL
Staphylococcus aureus [3]
  MIC: > 500 µg/mL
